Laboratory results: PubChem BioAssay AID857 (Vanderbilt High Throughput Screening Facility, 2007)
Active and inactive are the calls of the source.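 Rule for the calls: active = a full or partial dose-response curve in at least two of three replicate runs; inactive = the rest.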

The compounds below were run against D(1B) dopamine receptor (Homo sapiens) (UniProt P21918) (assay: dopamine D5 receptor modulation at EC30 dopamine, dose response, selectivity assay for D1 allosteric modulator project, cell-based, HEK293, CRE-luciferase, luminescence (AID 857);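 note: HEK 293 cells expressing human D5 with a CRE-driven luciferase reporter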).
D(1B) dopamine receptor (Homo sapiens), sequence (P21918 whole entry, looked up): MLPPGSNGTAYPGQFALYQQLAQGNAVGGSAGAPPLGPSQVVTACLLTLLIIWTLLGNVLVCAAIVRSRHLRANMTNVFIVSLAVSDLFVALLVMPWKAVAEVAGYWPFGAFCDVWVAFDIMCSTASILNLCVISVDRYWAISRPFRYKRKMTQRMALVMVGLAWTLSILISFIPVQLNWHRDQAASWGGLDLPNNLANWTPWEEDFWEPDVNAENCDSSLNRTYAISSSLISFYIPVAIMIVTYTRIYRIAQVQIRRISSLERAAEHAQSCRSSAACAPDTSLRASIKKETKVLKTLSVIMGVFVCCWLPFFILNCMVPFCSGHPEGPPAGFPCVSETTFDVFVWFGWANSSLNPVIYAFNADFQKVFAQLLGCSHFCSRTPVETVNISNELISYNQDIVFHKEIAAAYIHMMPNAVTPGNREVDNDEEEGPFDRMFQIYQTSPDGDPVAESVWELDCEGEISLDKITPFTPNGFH

Structure (SMILES)	outcome	EC50 [nM]
CCCc1nc2sc3c(SCC(=O)NCc4ccco4)ncnc3c2c2c1CCC2	inactive	–
O=C(NCc1cccs1)C1CC(c2ccccc2O)=NO1 (stereo not given)	inactive	–
N#Cc1cc2ccccc2nc1SCC(=O)Nc1ccc(S(=O)(=O)N2CCCC2)cc1	inactive	–
OCCNc1ncnc2c1c(-c1ccccc1)c(-c1ccccc1)n2Cc1ccco1	inactive	–
CNc1nc(C)c(C(=O)OCC(=O)OC)s1	inactive	–
COc1nc(C)ccc1-c1noc(-c2ccncc2)n1	inactive	–
COc1c(S(=O)(=O)n2nc(C)cc2C)ccc(Cl)c1Cl	inactive	–
CCCCn1c(=NC(=O)c2cccnc2)c(C(=O)OCC)cc2c(=O)n3ccccc3nc21	–	1070
COc1ccc(-c2cc(=O)oc3c(C)c(O)c(CN(C)C)cc23)cc1	inactive	–
CCOC(=O)N1CCC(N2Cc3cccc(C(=O)NC(C)c4ccc5c(c4)OCCO5)c3C2=O)CC1 (stereo not given)	inactive	–
CSC1=NCCN1C(=O)Cc1cccs1	inactive	–
COc1ccc(OC)c(NC(=O)CSc2nc3ccccc3c(=O)n2CCNC(C)=O)c1	inactive	–
COc1ccc(Cn2nnc3c(=O)[nH]c(C4CCCN(C(=O)c5ccccc5)C4)nc32)cc1 (stereo not given)	inactive	–
CCN=C1SC(C(N)=O)CC(=O)N1CC (stereo not given)	inactive	–
N#CC1=C(N)n2c(s/c(=C\c3ccco3)c2=O)=C(C#N)C1c1ccco1 (stereo not given)	inactive	–
NC(=O)COc1ccc(NC(=O)OCc2ccccc2)cc1	inactive	–
COc1ccc(CCNS(=O)(=O)c2ccc3c(c2)OCCO3)cc1OC	inactive	–
COC(=O)c1ccccc1NC(=O)COc1ccc(S(=O)(=O)N2CCCC2)cc1C	inactive	–
COc1ncnc2c1N=C1CC(C)(C)CC(N)=C1S2	inactive	–
COc1ccc(C2CC(=O)Nc3ccccc3S2(=O)=O)cc1OC (stereo not given)	inactive	–
CCCc1nc2sc3ccccc3c(=O)c2c(=O)n1Cc1ccco1	inactive	–
C(=N\C(/N=C/c1ccco1)c1ccco1)/c1ccco1	inactive	–

Structure (SMILES)	outcome	EC50 [nM]
CN1CCN(CC(O)COCc2ccc3c(c2)OCO3)CC1 (stereo not given)	inactive	–
Cc1cc(N2CCN(S(=O)(=O)c3ccc4c(c3)OCCO4)CC2)n2ncnc2n1	inactive	–
Cc1sc2ncnc(SCC(=O)N3CCCC3)c2c1C	inactive	–
CC1=CC(C)(C)N=C(NC#N)N1	inactive	–
Cc1cccc(Cc2c(C)nc3c(C(=O)NCc4ccco4)cnn3c2C)c1	inactive	–
CCc1ccc(C2=Nn3c(nnc3-c3cccs3)SC2)cc1	inactive	–
O=C(CSc1nc2ccccc2s1)NC(=O)NCc1ccco1	inactive	–
Fc1ccc(-c2cc(C(F)(F)F)nc(-n3cncn3)n2)cc1	inactive	–
Cc1ccc(-c2cc(-c3ccc(C)o3)nc(N)c2C#N)cc1	inactive	–
C/C(N)=C(/C#N)C(=O)CSc1nnc(SCc2ccc(Cl)cc2)s1	inactive	–
O=S(=O)(Nc1cc(Cl)ccc1N1CCCCC1)c1cccs1	inactive	–
CCC(=O)n1nc(-c2cccnc2)nc1NCc1ccc(OC)cc1	inactive	–
CCOc1ccccc1C1CC(c2ccccc2)Nc2nc(N)nn21 (stereo not given)	inactive	–
Cc1nnc(SCCn2c(N3CCCC(C)C3)nc3c2c(=O)[nH]c(=O)n3C)s1 (stereo not given)	inactive	–
N#Cc1cn(-c2ccccc2)nc1-c1ccccc1	inactive	–
CC1(C)CN=C(Nc2nc3ccccc3s2)S1	inactive	–
COCCNC(=O)c1c(NC(=O)c2ccco2)n(Cc2ccccc2)c2nc3ccccc3nc12	inactive	–
COc1ccccc1-n1c(=O)[nH]c2c(C(N)=O)nc(CC(C)C)nc21	inactive	–
CCC(=O)Nc1cccc(NC(=O)c2cc3ccccc3o2)c1	inactive	–
CCOC(=O)c1c(C)oc2c1c(C=NCc1ccccn1)c(O)c1ccccc12	inactive	–
Cc1csc2c(C#N)c(=O)c3c(n12)CCC3	inactive	–
c1ccc(Cn2nnc3c(N4CCc5ccccc54)ncnc32)cc1	inactive	–

Structure (SMILES)	outcome	EC50 [nM]
Cc1ccc(-c2cc(-c3ccc4c(c3)OCO4)c(C#N)c(N)n2)o1	inactive	–
CCC1(CC)C(=O)NC(=NCCc2c[nH]c3ccccc23)NC1=O	inactive	–
COc1cc2[nH]c(=S)n(C3CCCC3)c(=O)c2cc1OC	inactive	–
Cc1ccc(-n2c(SCC(=O)OC(C)C)nnc2-c2cnccn2)cc1	inactive	–
Cc1sc2nc(CN3CCN(S(=O)(=O)c4cccc5nonc45)CC3)[nH]c(=O)c2c1C	inactive	–
CCn1nc(C(=O)OCC(=O)N2c3ccccc3CC2C)c2ccccc2c1=O (stereo not given)	inactive	–
COc1ccccc1NC(=O)N(Cc1ccc2c(c1)OCO2)Cc1nc2ccccc2c(=O)[nH]1	inactive	–
O=C1C(Cl)=C(NCC2CCCO2)C(=O)N1C1CCCCC1 (stereo not given)	inactive	–
Cc1cc(N)n(-c2nc(-c3cccnc3)nc3ccccc23)n1	inactive	–
CC(C)Sc1nc2c(c(=O)n1C)SC(C)C2 (stereo not given)	inactive	–
COc1ccc(CN(C2CCCC2)S(=O)(=O)c2ccc(-n3cnnn3)cc2)cc1OC	inactive	–
Cc1ccc(Cn2c(-n3nc(C)cc3C)nc3c2c(=O)[nH]c(=O)n3C)cc1	inactive	–
c1ccc2c(c1)CCCN2c1nc2ccccc2n2cnnc12	inactive	–
CCOC(=O)c1c(-c2cccs2)csc1NC(=O)CSc1ncn[nH]1	inactive	–
COc1ccc(CN(Cc2cccnc2)S(=O)(=O)c2ccc(-n3cnnn3)c(C)c2)cc1OC	inactive	–
N#Cc1nc(-c2ccccc2Cl)oc1N1CCOCC1	inactive	–
CCC(C)Nc1nc(OC)nc(N(C)C#N)n1 (stereo not given)	inactive	–
COc1ccc(-c2csc3nc(C)n(-n4cccc4)c(=O)c23)cc1OC	inactive	–
COC(=O)c1c(-c2ccccc2)csc1NC(=O)c1ccco1	inactive	–
CCOC(=O)NCCc1ccc(OC)cc1	inactive	–
N#Cc1nc(-c2cccs2)oc1NCC1CCCO1 (stereo not given)	inactive	–
CCCn1c(=O)c2ccccc2n2c(SCc3nc4ccccc4s3)nnc12	inactive	–

Structure (SMILES)	outcome	EC50 [nM]
C/C(=C\C(=O)c1ccccc1)Nc1cccc(O)c1	inactive	–
Cc1ccc(OCCN2C(=O)OC(C)(C)C2(C)O)cc1 (stereo not given)	inactive	–
CCc1nn(CCCC(=O)N2CCc3ccccc3C2)c(=O)c2cc3occc3n12	inactive	–
CCOC(=O)c1oc2ccc(Br)cc2c1NC(=O)CN1CCN(C)CC1	inactive	–
N#Cc1c(N)nc(-c2ccccc2)nc1-c1ccccc1	inactive	–
CSc1nc2c(c(=O)n1-c1ccccc1)SCC2	inactive	–
CCN(CC)c1nc(N)c2c(N)nc3c(c2c1C#N)CC(c1ccccc1)O3 (stereo not given)	inactive	–
CCOC(=O)c1sc(NC(=O)CSc2nncs2)c(C(=O)OCC)c1C	inactive	–
Fc1ccc(NC2=NCCS2)cc1Cl	inactive	–
CCOC(=O)C1CCCN(c2nc3ccccc3nc2C(C#N)C(=O)OCC)C1 (stereo not given)	inactive	–
CC(=O)N=c1sc2nc3ccccc3nc2n1N(C(C)=O)C(C)=O	inactive	–
Cn1c(=O)c2c(nc(SCCCO)n2Cc2ccccc2Cl)n(C)c1=O	inactive	–
C/C(CCc1oc2ccccc2c1-c1ccc(C)o1)=N/O	inactive	–
O=c1c2ccccc2nc(SCc2cccc(F)c2)n1Cc1ccco1	inactive	–
COC(=O)c1ccc(OCCn2cnc3ccccc3c2=O)cc1	inactive	–
COC(=O)c1cccc(S(=O)(=O)N2CCC(NC(=O)NC34CC5CC(CC(C5)C3)C4)CC2)c1	inactive	–
Cc1cc(Br)c2c(c1)=C(c1sc(N3CCCCCC3)nc1O)C(=O)N=2	–	1030
COC(=O)c1ccc(C(=O)OC)c(NC(=O)COC(=O)C23CC4CC(CC(O)(C4)C2)C3)c1	inactive	–
Cc1ccc(C2C(C#N)=C(N)Oc3n[nH]c(-c4cccs4)c32)s1 (stereo not given)	inactive	–
Cc1ccc(CCNS(=O)(=O)c2cnc[nH]2)cc1	inactive	–
COc1ccc(-c2noc(COc3ccc4ccccc4c3Br)n2)cc1OC	inactive	–
C=CCn1c(=O)c2c(C)c(C)sc2n2c(Nc3ccc(OC)cc3)nnc12	inactive	–

Structure (SMILES)	outcome	EC50 [nM]
CCOC(=O)C(C)Oc1cccc2c(=O)n(CC(=O)NCc3ccco3)ccc12 (stereo not given)	inactive	–
CCCOc1ccccc1NC(=O)c1ccc(N)cc1	inactive	–
COc1cccc(-c2nnc(SCC(=O)Nc3cc(C)on3)o2)c1	inactive	–
O=C(c1ccco1)N1CCN(c2nc(C3CC3)nc3sc4c(c23)CCCC4)CC1	inactive	–
CC(=O)c1nn(-c2cccc(Cl)c2)cc1C(=O)c1ccco1	inactive	–
CCOC(=O)c1c(NC(=O)CSc2nnc(CN3CCOCC3)n2C)sc2c1CCCC2	inactive	–
c1ccc(-c2nn3c(-c4ccccc4)nnc3s2)cc1	inactive	–
COc1ccc(C2CC(c3ccc(Cl)cc3Cl)Nc3nc(N)nn32)cc1 (stereo not given)	inactive	–
COc1ccc(NC(=O)c2ccc(NS(=O)(=O)c3c(C)noc3C)cc2)cc1OC	inactive	–
COc1ccccc1-c1nnc2n1N=C(C(C)(C)C)CS2	inactive	–
CCCCSc1nc2c(cnn2-c2ccc(F)cc2)c(=O)[nH]1	inactive	–
COc1ccc(OC)c(C2C=C(c3ccc(C)c(C)c3)Nc3nnnn32)c1 (stereo not given)	inactive	–
CCCCn1c(O)c(C(C)=NCc2ccc(F)cc2)c(=O)[nH]c1=O	inactive	–
CCC(=O)NC(=Nc1nc2ccccc2s1)NC(=O)CC	–	1900
CSc1nc2oc3c(c2c2nncn12)CC(C)(C)SC3	inactive	–
O=C(Nc1ncnc2sc3c(c12)CCCCC3)c1ccco1	inactive	–
CCSC(C)CC1C/C(=N/O)c2c(CC)noc2C1 (stereo not given)	inactive	–
CCOc1cc(C2C(C#N)=C(N)Oc3n[nH]c(-c4ccccc4)c32)ccc1O (stereo not given)	inactive	–
c1ccc(C2CC(c3ccccc3)n3ncnc3N2)cc1 (stereo not given)	inactive	–
CC1(C)Cc2c(C#N)c(N3CCCC3)nc(-c3ccco3)c2CO1	inactive	–
COc1ccc(Cl)cc1C(=O)CSc1nnnn1C1CCCC1	–	661
Nc1ncnc2c1ncn2CCOc1ccccc1	inactive	–
